Source: ChEMBL document CHEMBL3046407, “Toxicity of monoterpenes against larvae and adults of Colorado potato beetle, Leptinotarsa decemlineata Say (Coleoptera: Chrysomelidae)” (2007)

How the values were obtained:
Type in all cases: functional
[1] = test system: Leptinotarsa decemlineata; assay: Insecticidal activity against second-instar larval stage of Leptinotarsa decemlineata infested potato leaves assessed as mortality at 10 ul after 12 hr relative to control
[2] = test system: Leptinotarsa decemlineata; assay: Insecticidal activity against adult Leptinotarsa decemlineata infested potato leaves assessed as mortality at 10 ul after 12 hr relative to control
[3] = test system: Leptinotarsa decemlineata; assay: Insecticidal activity against first-instar larval stage of Leptinotarsa decemlineata infested potato leaves assessed as mortality at 20 ul after 12 hr relative to control
[4] = test system: Leptinotarsa decemlineata; assay: Insecticidal activity against adult Leptinotarsa decemlineata infested potato leaves assessed as mortality at 20 ul after 12 hr relative to control
[5] = test system: Leptinotarsa decemlineata; assay: Insecticidal activity against adult Leptinotarsa decemlineata infested potato leaves assessed as mortality at 20 ul after 96 hr relative to control
[6] = test system: Leptinotarsa decemlineata; assay: Insecticidal activity against second-instar larval stage of Leptinotarsa decemlineata infested potato leaves assessed as mortality at 10 ul after 48 hr (reference value: 3.3 +/- 3.3%)
[7] = test system: Leptinotarsa decemlineata; assay: Insecticidal activity against adult Leptinotarsa decemlineata infested potato leaves assessed as mortality at 20 ul after 48 hr relative to control
[8] = test system: Leptinotarsa decemlineata; assay: Insecticidal activity against first-instar larval stage of Leptinotarsa decemlineata infested potato leaves assessed as mortality at 10 ul after 12 hr relative to control
[9] = test system: Leptinotarsa decemlineata; assay: Insecticidal activity against second-instar larval stage of Leptinotarsa decemlineata infested potato leaves assessed as mortality at 10 ul after 24 hr (reference value: 3.3 +/- 3.3%)
[10] = test system: Leptinotarsa decemlineata; assay: Insecticidal activity against third-instar larval stage of Leptinotarsa decemlineata infested potato leaves assessed as mortality at 20 ul after 96 hr (reference value: 3.3 +/- 3.3%)
[11] = test system: Leptinotarsa decemlineata; assay: Insecticidal activity against second-instar larval stage of Leptinotarsa decemlineata infested potato leaves assessed as mortality at 20 ul after 48 hr (reference value: 3.3 +/- 3.3%)
[12] = test system: Leptinotarsa decemlineata; assay: Insecticidal activity against adult Leptinotarsa decemlineata infested potato leaves assessed as mortality at 10 ul after 96 hr relative to control
[13] = test system: Leptinotarsa decemlineata; assay: Insecticidal activity against adult Leptinotarsa decemlineata infested potato leaves assessed as mortality at 10 ul after 24 hr relative to control
[14] = test system: Leptinotarsa decemlineata; assay: Insecticidal activity against first-instar larval stage of Leptinotarsa decemlineata infested potato leaves assessed as mortality at 10 ul after 96 hr relative to control
[15] = test system: Leptinotarsa decemlineata; assay: Insecticidal activity against second-instar larval stage of Leptinotarsa decemlineata infested potato leaves assessed as mortality at 20 ul after 96 hr (reference value: 3.3 +/- 3.3%)
[16] = test system: Leptinotarsa decemlineata; assay: Insecticidal activity against first-instar larval stage of Leptinotarsa decemlineata infested potato leaves assessed as mortality at 20 ul after 96 hr relative to control
[17] = test system: Leptinotarsa decemlineata; assay: Insecticidal activity against first-instar larval stage of Leptinotarsa decemlineata infested potato leaves assessed as mortality at 10 ul after 48 hr relative to control
[18] = test system: Leptinotarsa decemlineata; assay: Insecticidal activity against first-instar larval stage of Leptinotarsa decemlineata infested potato leaves assessed as mortality at 20 ul after 24 hr relative to control
[19] = test system: Leptinotarsa decemlineata; assay: Insecticidal activity against first-instar larval stage of Leptinotarsa decemlineata infested potato leaves assessed as mortality at 20 ul after 48 hr relative to control
[20] = test system: Leptinotarsa decemlineata; assay: Insecticidal activity against second-instar larval stage of Leptinotarsa decemlineata infested potato leaves assessed as mortality at 20 ul after 24 hr (reference value: 3.3 +/- 3.3%)
[21] = test system: Leptinotarsa decemlineata; assay: Insecticidal activity against third-instar larval stage of Leptinotarsa decemlineata infested potato leaves assessed as mortality at 10 ul after 12 hr relative to control
[22] = test system: Leptinotarsa decemlineata; assay: Insecticidal activity against third-instar larval stage of Leptinotarsa decemlineata infested potato leaves assessed as mortality at 10 ul after 96 hr (reference value: 3.3 +/- 3.3%)
[23] = test system: Leptinotarsa decemlineata; assay: Insecticidal activity against third-instar larval stage of Leptinotarsa decemlineata infested potato leaves assessed as mortality at 20 ul after 12 hr relative to control
[24] = test system: Leptinotarsa decemlineata; assay: Insecticidal activity against third-instar larval stage of Leptinotarsa decemlineata infested potato leaves assessed as mortality at 20 ul after 24 hr relative to control
[25] = test system: Leptinotarsa decemlineata; assay: Insecticidal activity against third-instar larval stage of Leptinotarsa decemlineata infested potato leaves assessed as mortality at 10 ul after 24 hr relative to control
[26] = test system: Leptinotarsa decemlineata; assay: Insecticidal activity against third-instar larval stage of Leptinotarsa decemlineata infested potato leaves assessed as mortality at 20 ul after 48 hr (reference value: 3.3 +/- 3.3%)
[27] = test system: Leptinotarsa decemlineata; assay: Insecticidal activity against third-instar larval stage of Leptinotarsa decemlineata infested potato leaves assessed as mortality at 10 ul after 48 hr (reference value: 3.3 +/- 3.3%)
[28] = test system: Leptinotarsa decemlineata; assay: Insecticidal activity against second-instar larval stage of Leptinotarsa decemlineata infested potato leaves assessed as mortality at 20 ul after 12 hr relative to control
[29] = test system: Leptinotarsa decemlineata; assay: Insecticidal activity against second-instar larval stage of Leptinotarsa decemlineata infested potato leaves assessed as mortality at 10 ul after 96 hr (reference value: 3.3 +/- 3.3%)
[30] = test system: Leptinotarsa decemlineata; assay: Insecticidal activity against adult Leptinotarsa decemlineata infested potato leaves assessed as mortality at 20 ul after 24 hr relative to control
[31] = test system: Leptinotarsa decemlineata; assay: Insecticidal activity against first-instar larval stage of Leptinotarsa decemlineata infested potato leaves assessed as mortality at 10 ul after 24 hr relative to control
[32] = test system: Leptinotarsa decemlineata; assay: Insecticidal activity against adult Leptinotarsa decemlineata infested potato leaves assessed as mortality at 10 ul after 48 hr relative to control

SMILES	mortality [1] [%]	mortality [2] [%]	mortality [3] [%]	mortality [4] [%]	mortality [5] [%]	mortality [6] [%]	mortality [7] [%]	mortality [8] [%]	mortality [9] [%]	mortality [10] [%]	mortality [11] [%]	mortality [12] [%]	mortality [13] [%]	mortality [14] [%]	mortality [15] [%]	mortality [16] [%]	mortality [17] [%]	mortality [18] [%]	mortality [19] [%]	mortality [20] [%]	other results
CC(=O)OC/C=C(/C)CCC=C(C)C [NERYL ACETATE]	0	0	6.7	3.3	30	0	13.3	0	0	43.3	3.3	70	20	0	6.7	10	0	10	10	3.3	mortality [21]: 0%; mortality [22]: 10%; mortality [23]: 23.3%; mortality [24]: 23.3%; mortality [25]: 0%; mortality [26]: 33.3%; mortality [27]: 6.7%; mortality [28]: 3.3%; mortality [29]: 0%; mortality [30]: 10%; mortality [31]: 0%; mortality [32]: 26.7%
CC1=CCC(C(C)C)=CC1 [GAMMA-TERPINENE]	90	20	100	46.7	100	100	100	43.3	100	50	100	90	40	100	100	100	100	100	100	100	mortality [21]: 16.7%; mortality [22]: 33.3%; mortality [23]: 10%; mortality [24]: 16.7%; mortality [25]: 26.7%; mortality [26]: 33.3%; mortality [27]: 30%; mortality [28]: 100%; mortality [29]: 100%; mortality [30]: 96.7%; mortality [31]: 100%; mortality [32]: 66.7%
C=C1CCC2CC1C2(C)C (stereo not drawn) [BETA-PINENE]	56.7	100	66.7	80	100	90	100	43.3	76.7	100	80	100	100	100	86.7	100	96.7	100	100	70	mortality [21]: 80%; mortality [22]: 100%; mortality [23]: 100%; mortality [24]: 100%; mortality [25]: 83.3%; mortality [26]: 100%; mortality [27]: 100%; mortality [28]: 20%; mortality [29]: 100%; mortality [30]: 96.7%; mortality [31]: 66.7%; mortality [32]: 100%
C=CC(C)(O)CCC=C(C)C (centres undefined) [LINALOOL]	20	16.7	40	30	100	76.7	100	26.7	73.3	40	100	90	73.3	100	100	100	63.3	93.3	100	93.3	mortality [21]: 3.3%; mortality [22]: 23.3%; mortality [23]: 6.7%; mortality [24]: 33.3%; mortality [25]: 13.3%; mortality [26]: 36.7%; mortality [27]: 20%; mortality [28]: 36.7%; mortality [29]: 100%; mortality [30]: 73.3%; mortality [31]: 53.3%; mortality [32]: 83.3%
CC(=O)OC/C=C(\C)CCC=C(C)C [GERANYL ACETATE]	3.3	0	0	3.3	26.7	20	16.7	0	3.3	16.7	23.3	10	3.3	6.7	23.3	16.7	0	6.7	10	10	mortality [21]: 6.7%; mortality [22]: 13.3%; mortality [23]: 6.7%; mortality [24]: 16.7%; mortality [25]: 10%; mortality [26]: 16.7%; mortality [27]: 13.3%; mortality [28]: 6.7%; mortality [29]: 20%; mortality [30]: 10%; mortality [31]: 0%; mortality [32]: 10%
C=C(C)[C@@H]1CC[C@@H](C)C(=O)C1 [DIHYDROCARVONE]	23.3	6.7	26.7	0	80	76.7	63.3	0	63.3	76.7	86.7	63.3	30	40	100	80	33.3	50	70	83.3	mortality [21]: 0%; mortality [22]: 23.3%; mortality [23]: 16.7%; mortality [24]: 46.7%; mortality [25]: 16.7%; mortality [26]: 60%; mortality [27]: 16.7%; mortality [28]: 36.7%; mortality [29]: 83.3%; mortality [30]: 23.3%; mortality [31]: 33.3%; mortality [32]: 53.3%
CC(C)=CCC/C(C)=C\CO [NEROL]	13.3	13.3	10	6.7	13.3	36.7	10	13.3	16.7	46.7	46.7	23.3	16.7	56.7	53.3	56.7	36.7	16.7	46.7	16.7	mortality [21]: 26.7%; mortality [22]: 80%; mortality [23]: 16.7%; mortality [24]: 16.7%; mortality [25]: 56.7%; mortality [26]: 30%; mortality [27]: 73.3%; mortality [28]: 10%; mortality [29]: 56.7%; mortality [30]: 6.7%; mortality [31]: 16.7%; mortality [32]: 20%
